≈ marks a conversion by molar mass, not a printed value.
Legend:
Aphis fabae (aphids) = test: Insecticidal mortality test, contact, aphids; assay type: in vivo; details: French beans, 2 days
Protocol: (§1) The activity of the compound was determined using a variety of insect pests. The compound was used in the form of liquid preparations containing 100, 50, 25, 10 or […] p.p.m. by weight of the compound. The preparations were made by dissolving the compound in a mixture of solvents consisting of 4 parts by volume of acetone and 1 part by volume of diacetone alcohol. The solutions were then diluted with water containing 0.01% by weight of a wetting agent sold under the trade name "LISSAPOL" NX until the liquid preparations contained the required concentration of the compound. "Lissapol" is a Trade Mark.
(§2) The test procedure adopted with regard to each pest was basically the same and comprised supporting a number of the pests on a medium which was usually a host plant or a foodstuff on which the pests feed, and treating either or both the pests and the medium with the preparations. The mortality of the pests was then assessed at periods usually varying from one to three days after the treatment.
(§3) The results of the tests are given in Table IIB for each of the products A to H at the rate in parts per million given in the second column as a grading of mortality on a scale of 0-9 wherein
(§4) In Table IIB the pest organism used is designated by a letter code and the pest species, the support medium or food, and the type and duration of test is given in Table IIA.

[1] = test system: Musca domestica (houseflies - adults); test: Insecticidal mortality test, contact, houseflies; assay type: in vivo; details: cotton wool/milk, sugar, 1 day
Protocol: as §1, §2, §3, §4

[2] = Fish toxicity, young trout; details: in vivo
Description: (§5) This Example illustrates the improved safety to fish of the compounds for use in the method of the invention compared with known compounds of similar chemical type. Table III sets out the LC50 values for young trout and carp in parts per million for the compounds for use in the method of this invention and parts per billion for the known (reference) compounds.

[3] = test system: Diabrotica balteata (rootworm - larvae); test: Insecticidal mortality test, contact, rootworm; assay type: in vivo; details: filter paper, 3 days
Protocol: as §1, §2, §3, §4

[4] = test system: Plutella xylostella (diamond back moth - larvae); test: Insecticidal mortality test, residual, diamond back moth; assay type: in vivo; details: cabbage leaves, 3 days
Protocol: as §1, §2, §3, §4

[5] = test system: Spodoptera littoralis (cotton leaf worm - larvae); test: Insecticidal mortality test, contact/residual, cotton leaf worm; assay type: in vivo; details: cabbage leaves, 3 days
Protocol: as §1, §2, §3, §4

[6] = Fish toxicity, young carp; details: in vivo
Description: as §5

Row | SMILES | grading of mortality AF (Aphis fabae (aphids); rate 10 ppm) | grading of mortality AF (Aphis fabae (aphids); rate 100 ppm) | grading of mortality MD ([1]; rate 10 ppm) | grading of mortality MD ([1]; rate 100 ppm) | LC50 ([2]; compounds of the invention) | grading of mortality DB ([3]; rate 10 ppm) | grading of mortality DB ([3]; rate 100 ppm) | grading of mortality PX ([4]; rate 10 ppm) | grading of mortality PX ([4]; rate 100 ppm) | grading of mortality SL ([5]; rate 10 ppm) | grading of mortality SL ([5]; rate 100 ppm) | other results
1 | CC1(C)[C@H](C(=O)OCc2cccc(Oc3ccc(Cl)cc3)c2)[C@@H]1/C=C(\Cl)C(F)(F)F (racemic) [Compound 5, (+)-3-(4-chlorophenoxy)benzyl (+)-cis-3-(Z-2-chloro-3,3,3-trifluoroprop-l-en-yl)-2,2-dimethylcyclopropane carboxylate] | 9 (90 to 100%) | 9 (90 to 100%) | 1 (from 10 to 19%) | 9 (90 to 100%) | 10 µg/mL (≈ 21.8 µM) | 3 (30 to 39%) | 5 (50 to 59%) | 0 (less than 10% mortality) | 9 (90 to 100%) | 9 (90 to 100%) | 9 (90 to 100%) | –
2 | CC1(C)[C@H](/C=C(\Cl)C(F)(F)F)[C@@H]1C(=O)OC(C#N)c1cccc(Oc2ccc(Br)cc2)c1 (mixture of isomers) [Compound 6, (+)-α-cyano-3-(4-bromophenoxy)benzyl (+)-cis-3-(Z-2-chloro-3,3,3-trifluoroprop-1-en-1-yl)-2,2-dimethylcyclopropane carboxylate] | 9 (90 to 100%) | 9 (90 to 100%) | 6 (60 to 69%) | 9 (90 to 100%) | – | 3 (30 to 39%) | 5 (50 to 59%) | 6 (60 to 69%) | 7 (70 to 79%) | 9 (90 to 100%) | 9 (90 to 100%) | LC50 ([6]; compounds of the invention): 10 µg/mL (≈ 18.9 µM)
3 | CC1(C)[C@H](/C=C(\Cl)C(F)(F)F)[C@@H]1C(=O)OC(C#N)c1cccc(Oc2ccc(F)cc2)c1 (mixture of isomers) [Compound 7, (+)-α-cyano-3-(4-fluorophenoxy)benzyl (+)-cis-3-(Z-2-chloro-3,3,3-trifluoroprop-1-en-1-yl)-2,2-dimethylcyclopropane carboxylate] | 9 (90 to 100%) | 9 (90 to 100%) | 0 (less than 10% mortality) | 0 (less than 10% mortality) | 1 µg/mL (≈ 2.14 µM) | 5 (50 to 59%) | 9 (90 to 100%) | 9 (90 to 100%) | 9 (90 to 100%) | 9 (90 to 100%) | 9 (90 to 100%) | –
4 | CC1(C)C(/C=C(\Cl)C(F)(F)F)C1C(=O)OC(C#N)c1cccc(Oc2ccccc2)c1 (racemic) [Cyhalothrin, (±)-α-cyano-3-phenoxybenzyl (±)-cis-3-(Z-2-chloro-3,3,3-trifluoroprop-1-en-1-yl)-2,2-dimethylcyclopropane carboxylate, reference compound] | – | – | – | – | – | – | – | – | – | – | – | LC50 ([2]; known (reference) compounds): 0.00073 µg/mL (≈ 0.00162 µM); LC50 ([6]; known (reference) compounds): 0.00134 µg/mL (≈ 0.00298 µM)
5 | CC1(C)C(C=C(Cl)Cl)C1C(=O)OC(C#N)c1cccc(Oc2ccccc2)c1 (racemic) [Cypermethrin, (±)-α-cyano-3-phenoxybenzyl (±)-cis/trans-3-(2,2-dichlorovinyl)-2,2-dimethylcyclopropane carboxylate, reference compound] | – | – | – | – | – | – | – | – | – | – | – | LC50 ([2]; known (reference) compounds): ~0.002 µg/mL (≈ 0.0048 µM)
6 | CC1(C)[C@H](C(=O)OC(C#N)c2cccc(Oc3ccc(Cl)cc3)c2)[C@@H]1/C=C(\Cl)C(F)(F)F (stereo partly drawn) [Compound 1, (+)-χ-cyano-3-(4-chlorophenoxy)benzyl (+)-cis-3-(Z-2-chloro-3,3,3-trifluoroprop-l-en-l-yl)-2,2-dimethylcyclopropane carboxylate] | – | 9 (90 to 100%) | – | 9 (90 to 100%) | 20 µg/mL (≈ 41.3 µM) | – | 9 (90 to 100%) | – | 9 (90 to 100%) | – | 9 (90 to 100%) | grading of mortality AF (Aphis fabae (aphids); rate 12 ppm): 9 (90 to 100%); grading of mortality AF (Aphis fabae (aphids); rate 25 ppm): 9 (90 to 100%); grading of mortality AF (Aphis fabae (aphids); rate 50 ppm): 9 (90 to 100%); grading of mortality MD ([1]; rate 12 ppm): 9 (90 to 100%); grading of mortality MD ([1]; rate 25 ppm): 9 (90 to 100%); grading of mortality MD ([1]; rate 50 ppm): 9 (90 to 100%); grading of mortality DB ([3]; rate 12 ppm): 0 (less than 10% mortality); grading of mortality DB ([3]; rate 25 ppm): 0 (less than 10% mortality); grading of mortality DB ([3]; rate 50 ppm): 9 (90 to 100%); grading of mortality PX ([4]; rate 12 ppm): 2 (20 to 29%); grading of mortality PX ([4]; rate 25 ppm): 7 (70 to 79%); grading of mortality PX ([4]; rate 50 ppm): 9 (90 to 100%); grading of mortality SL ([5]; rate 12 ppm): 0 (less than 10% mortality); grading of mortality SL ([5]; rate 25 ppm): 0 (less than 10% mortality); grading of mortality SL ([5]; rate 50 ppm): 9 (90 to 100%)
7 | CC1(C)[C@H](/C=C(\Cl)C(F)(F)F)[C@H]1C(=O)OC(C#N)c1cccc(Oc2ccc(Cl)cc2)c1 (stereo partly drawn) [Compound 8, (+)-α-cyano-3-(4-chlorophenoxy)benzyl (+)-trans-3-(Z-2-chloro-3,3,3-trifluoroprop-l-en-yl)-2,2-dimethylcyclopropane carboxylate] | 9 (90 to 100%) | 9 (90 to 100%) | 9 (90 to 100%) | 9 (90 to 100%) | – | 0 (less than 10% mortality) | 5 (50 to 59%) | 8 (80 to 89%) | 9 (90 to 100%) | 9 (90 to 100%) | 9 (90 to 100%) | –
